From US11731967B2, “Inhibitors of TRIM33 and methods of use” (Dana-Farber Cancer Institute, Inc., priority 2017, dated 2023) come the findings set out here.

Assay [1] concerns the target T1, recombinant PHD-bromodomain module of TRIM33 (Homo sapiens, UniProt Q9UPN9).
T1 construct: rows headed: TRIM33 modulating activity; unit not given
T1 sequence (Q9UPN9 1-1127): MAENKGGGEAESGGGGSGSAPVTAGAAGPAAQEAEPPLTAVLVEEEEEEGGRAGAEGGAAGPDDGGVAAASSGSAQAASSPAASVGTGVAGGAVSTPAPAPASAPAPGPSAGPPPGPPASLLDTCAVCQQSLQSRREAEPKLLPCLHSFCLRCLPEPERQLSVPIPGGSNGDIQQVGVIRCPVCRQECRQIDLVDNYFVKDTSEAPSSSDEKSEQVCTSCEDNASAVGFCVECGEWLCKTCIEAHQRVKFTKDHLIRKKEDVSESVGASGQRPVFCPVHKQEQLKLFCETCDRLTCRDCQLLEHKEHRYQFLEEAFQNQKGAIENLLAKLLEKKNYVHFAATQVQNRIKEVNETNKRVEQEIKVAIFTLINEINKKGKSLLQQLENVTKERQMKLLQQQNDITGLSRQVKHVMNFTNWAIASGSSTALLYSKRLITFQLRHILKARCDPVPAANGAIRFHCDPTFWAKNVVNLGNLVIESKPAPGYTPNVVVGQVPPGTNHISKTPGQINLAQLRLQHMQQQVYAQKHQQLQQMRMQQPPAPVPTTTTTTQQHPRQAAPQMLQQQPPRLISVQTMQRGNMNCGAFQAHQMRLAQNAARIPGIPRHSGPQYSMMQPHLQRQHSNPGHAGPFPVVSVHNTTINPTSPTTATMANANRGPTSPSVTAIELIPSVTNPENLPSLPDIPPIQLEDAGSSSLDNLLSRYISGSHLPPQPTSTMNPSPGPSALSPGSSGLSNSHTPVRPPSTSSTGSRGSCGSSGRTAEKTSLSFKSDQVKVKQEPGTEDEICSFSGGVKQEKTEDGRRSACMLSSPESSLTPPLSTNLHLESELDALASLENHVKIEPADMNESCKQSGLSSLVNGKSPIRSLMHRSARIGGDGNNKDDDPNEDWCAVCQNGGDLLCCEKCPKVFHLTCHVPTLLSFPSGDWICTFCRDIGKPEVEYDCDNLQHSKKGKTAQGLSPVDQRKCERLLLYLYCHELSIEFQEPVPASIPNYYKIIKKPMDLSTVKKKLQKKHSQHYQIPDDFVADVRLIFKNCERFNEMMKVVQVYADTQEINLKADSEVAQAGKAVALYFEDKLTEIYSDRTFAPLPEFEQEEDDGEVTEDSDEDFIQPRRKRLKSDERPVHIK
The assay is described as follows: AlphaScreen binding assay, TRIM33 with biotinylated H3K9me3K18ac peptide. An excerpt: (§1) The IC50 or EC50 of the compound of the present application can be determined by various methods known in the art. For example, the IC50 or EC50 of the compound of the present application can be measured by an AlphaScreen assay, as described herein (see FIG. 1).
(§2) A compound of the present application can be tested for its TRIM33 and/or TRIM24 activity with AlphaScreen Assay illustrated in FIG. 1.
(§3) Additionally, a second AlphaScreen® binding assay for TRIM24 as counter-screening assay for selectivity of TRIM33 over TRIM24 was developed. A focused compound libraries for TRIM33 inhibitor development was designed and synthesized using the design principle that is to connect the bromodomain binding motif/fragment to proper chemical scaffold via multi-component reactions, such as Groebke-Blackburn-Bienaymé (GBB) coupling reaction, to establish chemically bias library.
(§4) With multiple libraries synthesized (˜400 compounds) as described above, compounds were screened against TRIM33 and TRIM24 by AlphaScreen to establish structure activity relationship (SAR).
Background: Alpha assays give light when donor and acceptor beads are brought close together.

Assay [2] relates to recombinant PHD-bromodomain module of TRIM33. The assay is described as above. As to conditions: compounds shown in Table 2a.
Source text: as §1, §2, §3, §4

The target in a further assay is T2, TRIM24 (Homo sapiens, UniProt O15164).
T2 sequence (O15164 1-1050): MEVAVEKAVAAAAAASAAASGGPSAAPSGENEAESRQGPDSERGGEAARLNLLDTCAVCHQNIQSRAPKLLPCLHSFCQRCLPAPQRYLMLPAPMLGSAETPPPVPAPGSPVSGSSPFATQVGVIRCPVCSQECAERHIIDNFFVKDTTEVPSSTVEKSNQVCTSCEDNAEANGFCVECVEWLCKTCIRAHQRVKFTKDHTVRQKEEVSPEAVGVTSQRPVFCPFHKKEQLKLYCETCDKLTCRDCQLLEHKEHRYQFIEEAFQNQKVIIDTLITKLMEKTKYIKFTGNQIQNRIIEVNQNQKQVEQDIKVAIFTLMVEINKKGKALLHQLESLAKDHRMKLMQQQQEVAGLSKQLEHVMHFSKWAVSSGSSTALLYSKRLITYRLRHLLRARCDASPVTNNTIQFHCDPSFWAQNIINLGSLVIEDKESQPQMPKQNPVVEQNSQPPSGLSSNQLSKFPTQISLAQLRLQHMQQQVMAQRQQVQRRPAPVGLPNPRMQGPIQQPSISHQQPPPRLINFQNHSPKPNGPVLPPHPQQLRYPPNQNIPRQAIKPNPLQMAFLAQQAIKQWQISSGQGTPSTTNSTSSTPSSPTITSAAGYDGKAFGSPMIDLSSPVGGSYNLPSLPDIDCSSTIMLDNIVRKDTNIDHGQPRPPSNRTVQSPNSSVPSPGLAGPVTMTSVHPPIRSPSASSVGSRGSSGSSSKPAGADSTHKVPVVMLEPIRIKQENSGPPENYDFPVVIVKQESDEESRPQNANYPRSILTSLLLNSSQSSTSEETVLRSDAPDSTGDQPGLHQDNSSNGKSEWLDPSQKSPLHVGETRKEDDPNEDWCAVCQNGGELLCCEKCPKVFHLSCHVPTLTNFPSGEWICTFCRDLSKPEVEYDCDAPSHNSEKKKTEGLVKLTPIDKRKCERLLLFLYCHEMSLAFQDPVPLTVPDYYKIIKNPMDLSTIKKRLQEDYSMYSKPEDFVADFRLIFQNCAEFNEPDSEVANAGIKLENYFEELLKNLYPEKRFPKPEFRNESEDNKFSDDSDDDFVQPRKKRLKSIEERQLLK
The assay is described as follows: AlphaScreen binding assay for TRIM24 (counter-screening assay).
Source text: as §2, §3, §4

Setting [3] is: compounds shown in Table 2a, called TRIM33 IC50 in title of Table 5, unit inferred, read-out: TRIM33 modulating activity.
[4] abbreviates: compounds shown in FIG. 14A (Table 8), read-out: TRIM 33 IC50.
Where [5] appears, read: compounds with R7/R7′ shown in FIG. 11A (Table 6), read-out: IC50 TRIM33.
Where [6] appears, read: compounds shown in FIG. 13A (Table 7), read-out: TRIM 33 IC50.
[7] abbreviates: compounds shown in FIG. 13A (Table 7), read-out: TRIM 24 IC50.
The mark [8] stands for this setting: compounds shown in FIG. 14A (Table 8), read-out: TRIM 24 IC50.

Where two headings read alike, the source gives them in different places.

For the compound `COc1ccc(CCNc2c(-c3c[nH]c(C)n3)nc3ccccn23)cc1OC` [Compound A2], the IC50 in assay [1] (setting [3]) came to 1.36 µM. In assay [2], the “Ratio of TRIM24 IC50 over TRIM33 IC50” value was 32.77.
For the compound `COc1ccc(CCNc2c(-c3c[nH]c(C)n3)nc3cnccn23)cc1OC` [Compound A8], the IC50 in assay [1] (setting [3]) is 269 µM.
`COCCNc1c(-c2c[nH]c(C)n2)nc2cnccn12` [Compound A9]: the IC50 in assay [1] (setting [3]) came to 286 µM. Also, in assay [2], the “Ratio of TRIM24 IC50 over TRIM33 IC50” value is on record as 321.31.
For `Cc1[nH]cnc1-c1nc2cnccn2c1NC1CCCCC1` [Compound B7] the same measures were 116 µM and 0.78.
For `COc1ccc(CCNc2c(-c3ccc4nccn4c3)nc3ccccn23)cc1OC` [Compound C2] the same measures were 24.9 µM and 60.92.
For `CCCOc1ccn2c(C(C)=O)cc(-c3nc4cnccn4c3NCCOC)c2c1` [Compound D9] the same measures were 138 µM and 20.66.
As to `COc1ccc(CCNc2c(-c3c[nH]c(C)n3)nc3ccc(Br)cn23)cc1OC` [Compound E8], the IC50 in assay [1] (setting [3]) was found to be 3.46 µM. The “Ratio of TRIM24 IC50 over TRIM33 IC50” value in assay [2] was 18.38.
For `COC(=O)c1ccc2nc(-c3nc[nH]c3C)c(NC3CCCCC3)n2c1` [Compound F1] the same measures were 18.1 µM and 7.89.
`COC(=O)c1ccc2nc(-c3nc[nH]c3C)c(NCCc3ccc(OC)c(OC)c3)n2c1` [Compound F2]: the IC50 in assay [1] (setting [3]) was determined as 12.6 µM. In assay [2], the “Ratio of TRIM24 IC50 over TRIM33 IC50” value was found to be 29.84.
For `COCCNc1c(-c2nc[nH]c2C)nc2ccc(C(=O)OC)cn12` [Compound F3] the same measures were 44 µM and 11.61.
For `COCCNc1c(-c2nc[nH]c2C)nc2ccc(Br)cn12` [Compound F9] the same measures were 37 µM and 3.62.
With `Cc1[nH]cnc1-c1nc2ccc(Br)cn2c1NCCN1CCOCC1` [Compound F10], the IC50 in assay [1] (setting [3]) turned out to be 26.2 µM. Besides, the “Ratio of TRIM24 IC50 over TRIM33 IC50” value in assay [2] worked out at 4.48.
Turning to `COCCNc1c(-c2ccc3nccn3c2)nc2ccc(C(=O)OC)cn12` [Compound G3], the IC50 in assay [1] (setting [3]) was 357 µM. For the same compound, the “Ratio of TRIM24 IC50 over TRIM33 IC50” value in assay [2] was 78.61.
`Brc1ccc2nc(-c3ccc4nccn4c3)c(NC3CCCCC3)n2c1` [Compound G7]: the IC50 in assay [1] (setting [3]) was 121 µM. Moreover, the “Ratio of TRIM24 IC50 over TRIM33 IC50” value in assay [2] was determined as 0.83.
For `Brc1ccc2nc(-c3ccc4nccn4c3)c(NCCN3CCOCC3)n2c1` [Compound G10] the same measures were 214 µM and 6.43.
For `CCCOc1ccn2c(C(C)=O)cc(-c3nc4ccc(C(=O)OC)cn4c3NC3CCCCC3)c2c1` [Compound H1] the same measures were 32.6 µM and 7.82.
On to `CCCOc1ccn2c(C(C)=O)cc(-c3nc4ccc(C(=O)OC)cn4c3NCCc3ccc(OC)c(OC)c3)c2c1` [Compound H2], for which the IC50 in assay [1] (setting [3]) was determined as 12.2 µM. Further, in assay [2], the “Ratio of TRIM24 IC50 over TRIM33 IC50” value is given as 463.20.
For `CCCOc1ccn2c(C(C)=O)cc(-c3nc4ccc(C(=O)OC)cn4c3NCCOC)c2c1` [Compound H3] the same measures were 77 µM and 37.43.
With `CCCOc1ccn2c(C(C)=O)cc(-c3ccccc3S(C)(=O)=O)c2c1` [GS-A, reference compound], in assay [1] (setting [3]), the IC50 came to 50.9 µM.
As for `CCCOc1cc(OCCCCN(C)C)cc(Oc2cc3c(cc2NS(=O)(=O)c2ccc(OC)c(OC)c2)n(C)c(=O)n3C)c1` [IACS9571, reference compound], the IC50 amounted to 6.32 µM in assay [1] (setting [4]), 10.6 µM in assay [1] (setting [3]) and 13.4 µM in assay [1] (setting [5]).
As to `Cc1sc2c(c1C)C(c1ccc(Cl)cc1)=N[C@@H](CC(=O)NCCCCCCCCNC(=O)COc1cccc3c1C(=O)N(C1CCC(=O)NC1=O)C3=O)c1nnc(C)n1-2` (stereo partly drawn) [dBET6, reference compound], the IC50 stood at 4.69 µM in assay [1] (setting [5]) and 1960 nM on TRIM24 (compounds with R7/R7′ shown in FIG. 11A (Table 6), read-out: IC50 TRIM24).
For `Cc1[nH]cnc1-c1nc2ccccn2c1NCCN1CCOCC1` [pck-9295-013], the IC50 stood at 3.78 µM in assay [1] (setting [6]) and 746 nM at TRIM24 (setting [7]).
With `COc1ccc(Nc2c(-c3nc[nH]c3C)nc3ccccn23)cc1` [pck-9295-014], the IC50 is 0.641 µM in assay [1] (setting [6]) and 356 nM on TRIM24 (setting [7]).
For `COc1ccc(Nc2c(-c3c[nH]c(C)n3)nc3ccc(Br)cn23)cc1` [pck-9295-016] the same measures were 0.538 µM and 818 nM.
As for `CC(C)(C)Nc1c(-c2c(O)ccc3ccccc23)nc2ccccn12` [pck-9295-029], the IC50 was determined as 7.45 µM in assay [1] (setting [6]) and 7760 nM on TRIM24 (setting [7]).
For the compound `COCCNc1c(-c2ccco2)nc2ccc(C(=O)OC)cn12` [pck-9295-032], in assay [1] (setting [6]), the IC50 worked out at 21.8 µM.
`CCOC(=O)CNc1c(-c2ccco2)nc2ccc(C(=O)OC)cn12` [pck-9295-035]: the IC50 was found to be 10.8 µM in assay [1] (setting [6]) and 5250 nM on TRIM24 (setting [7]).
Turning to `COC(=O)c1ccc2nc(-c3nc[nH]c3C)c(NCCN3CCOCC3)n2c1` [pck-9295-060], the figures for the IC50 (in assay [1] (setting [4]); at TRIM24 (setting [8])) were 1.93 µM and 308 nM, respectively.
For the compound `Cc1nc[nH]c1-c1nc2ccc(C(=O)NN)cn2c1NCCN1CCOCC1` [pck-9295-134], the values for the IC50 (in assay [1] (setting [4]); at TRIM24 (setting [8])) were 1.29 µM and 304 nM, respectively.
For `COc1ccc(CCNc2c(-c3nc(C)n4ccccc34)nc3ccccn23)cc1OC` [pck-9295-173] the same measures were 44.3 µM and 9440 nM.
For `COc1ccc(CCNc2c(-c3cn(S(=O)(=O)c4ccc(C)cc4)c4ccccc34)nc3ccccn23)cc1OC` [pck-9295-174] the same measures were 0.553 µM and 584 nM.
